Read-outs that look alike come from different tables or passages of the source. Marks after values point to notes of the source that are not given here.

For one data set, the target named is T1, human PPARγ (Homo sapiens, UniProt P37231).
T1 construct: expressed in transfected cells; host or cells: HEK-293 (Human Embryonic Kidney) cells
T1 sequence (P37231 1-505): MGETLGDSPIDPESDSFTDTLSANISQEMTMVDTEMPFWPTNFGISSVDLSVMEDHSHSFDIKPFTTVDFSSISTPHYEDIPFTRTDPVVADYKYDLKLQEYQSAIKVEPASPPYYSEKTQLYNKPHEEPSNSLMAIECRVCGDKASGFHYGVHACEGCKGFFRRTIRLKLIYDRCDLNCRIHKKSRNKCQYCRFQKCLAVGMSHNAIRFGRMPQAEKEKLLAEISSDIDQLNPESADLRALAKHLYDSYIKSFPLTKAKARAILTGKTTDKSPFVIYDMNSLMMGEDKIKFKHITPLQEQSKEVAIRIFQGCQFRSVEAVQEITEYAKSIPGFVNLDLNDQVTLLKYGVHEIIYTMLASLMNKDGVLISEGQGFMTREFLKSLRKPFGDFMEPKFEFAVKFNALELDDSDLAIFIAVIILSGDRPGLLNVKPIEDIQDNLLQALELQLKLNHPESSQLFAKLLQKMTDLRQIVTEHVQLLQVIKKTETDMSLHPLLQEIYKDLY
The experiment in a line: Human PPAR gamma agonist activity, GAL4-luciferase transactivation in transfected HEK-293 cells. The data set is classed as cell-based. The settings on record: fold increase in gene transactivation (luciferase), 18 hours incubation, classes at 10 μM or 1 μM. The procedure: HEK-293 (Human Embryonic Kidney) cells were seeded at a density of 2.8×10^5 cells/well in a 6 well plate in DMEM +10% delipidated FBS medium and incubated at 37° C., 5% CO2. At 70-80% confluency cells were transfected with human pCDNA3.1E˜PPARγ+pGL2˜GAL4x5˜Luc+pADV plasmids for 3 hours (ratio 2:0.25:1.25 μg/well). The transfection medium was then replaced with fresh medium and cells were incubated for 48 hours.
Varying final concentrations of compounds (vehicle=0.1% DMSO) of the invention were prepared in medium (50 μl/well) and added to the wells in a 96 well plate. Transfected cells were harvested and pelleted by centrifugation. The cell pellet was resuspended in medium and cells counted. 10,000 cells/well were added to the 96 well plate containing compounds of the invention and incubated for 18 hours. Luminescence produced following agonism of the PPAR gamma receptor was determined using Packard luciferase substrate reagent (100 μl/well). Light emission was quantified by counting SPC mode using a Top Count. Fold activation was calculated using the following formula: […]
All compounds show activity as PPAR gamma agonists at 30 μM. Key for relative activity: • *<8 fold increase in gene transactivation with 10 μM • **>8 fold increase in gene transactivation with 10 μM • ***>8 fold increase in gene transactivation with 1 μM.

For data set [1] the following is noted: rat, cited from earlier work.
Data set [2] has as its system TS induced BAL neutrophil influx. The experiment in a line: Pre-clinical mouse model of COPD inflammation (tobacco smoke induced pulmonary inflammation), BAL neutrophil counts. The data set is classed as in vivo. Conditions: mice; for Inhibition of TS induced BAL neutrophil influx: BAL 24 h after final TS; for TS induced influx of neutrophils in the BAL (in words): administered by a surrogate route for inhalation (intra-nasal). The procedure: Protocols for the exposure of mice to TS, obtaining bronchoalveolar lavage (BAL), preparation of cytospin slides for differential cell counts are as outlined below.
In this exposure protocol, mice were exposed in groups of 5 in individual clear polycarbonate chambers (27 cm×16 cm×12 cm). The TS from the cigarettes was allowed to enter the exposure chambers at a flow rate of 100 mL/min. In order to minimize any potential problems caused by repeated exposure to a high level of TS (6 cigarettes), the exposure of the mice to TS was increased gradually over the exposure period to a maximum of 6 cigarettes. The exposure schedule used for 4 days was as follows:
A further group of mice was exposed to air on a daily basis for an equivalent length of time as controls (no TS exposure).
Bronchoalveolar lavage was performed as follows: the trachea was cannulated using a Portex nylon intravenous cannula (pink luer fitting) shortened to approximately 8 mm. Phosphate buffered saline (PBS) was used as the lavage fluid. A volume of 0.4 mL was gently instilled and withdrawn 3 times using a 1 mL syringe and then placed in an Eppendorf tube and kept on ice prior to subsequent determinations.
Lavage fluid was separated from cells by centrifugation and the supernatant decanted and frozen for subsequent analysis. The cell pellet was re-suspended in a known volume of PBS and total cell numbers calculated by counting a stained (Turks stain) aliquot under a microscope using a haemocytometer.
The residual cell pellet was diluted to approximately 10^5 cells per mL. A volume of 500 μL was placed in the funnel of a cytospin slide and centrifuged for 8 min at 800 rpm. The slide was air dried and stained using ‘Kwik-Diff’ solutions (Shandon) as per the proprietary instructions. When dried and cover-slipped, differential cells were counted using light microscopy. Up to 400 cells were counted by unbiased operator using light microscopy. Cells were differentiated using standard morphometric techniques.
Mice were dosed intra-nasally (surrogate for oral inhalation) with vehicle (0.2% tween 80 in saline), Example 1 (0.1 mg/kg), Example 10 (0.1 mg/kg), Example 10 (0.03 mg/kg), or Example 10 (0.01 mg/kg), at 3 hours prior to tobacco smoke exposure each day. The control group of mice received vehicle 3 hrs prior to being exposed to air daily for a maximum of 50 minutes per day. BAL was performed 24 h following the final TS exposure.
In a separate experiment, mice were dosed intra-nasally (surrogate for oral inhalation) with either vehicle (0.2% tween 80 in saline), Example 7 (0.1 mg/kg), Compound 7 (0.03 mg/kg), Example 15 (0.1 mg/kg), or Example 15 (0.03 mg/kg), 1 hour prior to tobacco smoke exposure each day. The control group of mice received vehicle 1 hr prior to being exposed to air daily for a maximum of 50 minutes per day. BAL was performed 24 h following the final TS exposure.
All results are presented as individual data points for each animal and the mean value was calculated for each group. Since tests for normality were positive the data was subjected to a one way analysis of variance test (ANOVA), followed by a Bonferroni correction for multiple comparisons in order to test for significance between treatment groups. A “p” value of <0.05 was considered to be statistically significant. Percentage inhibitions were automatically calculated within the Excel spreadsheets for the cell data using the formula below:
[formula] Inhibition data for other parameters were calculated manually using the above formula.

The nature of data set [3]: In vivo pharmacokinetic study, plasma AUC after oral and i.v. dosing. Details: species or system male Wistar rats. The settings on record: for plasma AUC following i.v. dosing (in words) / oral bioavailability (in words) / AUC: rat; for oral bioavailability (in words): oral vs i.v. plasma AUC; for AUC: plasma. As for the experimental part: The suitability of the compounds exemplified in Examples 7, 10 and 15 above for inhalation for the treatment of lung diseases was examined by standard in vivo pharmacokinetic studies using male Wistar rats as known in the art. […] A single 1 mg/kg dose of Example 7, Example 10 and Example 15 was administered in 10% DMSO, 10% Cremophor ELP, 10% PEG 400, 10% EtOH and 60% Milli Q Water by the intravenous (IV) route and plasma samples taken 15 minutes, 30 minutes, 1 hour, 2 hours, 3 hours, 5 hours, 8 hours, 10 hours and 24 hours. Concentrations of Example 7, Example 10 and Example 15 in the various plasma samples were determined using standard analytical procedures.
Standard pharmacokinetic parameters following IV or oral dosing were calculated from the plasma concentration data, including Area under the curve (AUC), maximum plasma concentration (Cmax), time of maximum plasma concentration (Tmax), Elimination time (Kel) and plasma half-life (T½).
Compounds suitable for inhalation for the treatment of lung diseases have low plasma AUC following i.v. dosing indicating reduced likelihood of systemic side effects. Compounds suitable for inhalation for the treatment of lung diseases also have low oral bioavailability indicated by a much lower plasma AUC following oral dosing as that achieved by i.v. dosing. Low oral bioavailability leads to only a small fraction of the swallowed drug following inhalation being absorbed into the plasma, further reducing the likelihood of systemic side effects.

The mark [4] stands for this setting: 0.03 mg/kg intra-nasally 1 hour prior to TS exposure each day for 4 days.
Setting [5] is: 0.1 mg/kg intra-nasally 1 hour prior to TS exposure each day for 4 days.
Setting [6] is: iv, male Wistar rats, single 1 mg/kg i.v. dose, read-out: Plasma AUC following 1 mg/kg i.v. dose.
Where [7] appears, read: male Wistar rats, derived from 5 mg/kg oral dose PK data, read-out: Plasma AUC following 1 mg/kg oral dose.

Consider `O=S(=O)(Nc1ccc(Oc2cnn(-c3ccc(Cl)cc3)c2)c(Cl)c1)c1ccc(Cl)cc1Cl` [Example 6], for which the PPARγ agonist activity result on human PPARγ is on record as “*** (>8 fold increase in gene transactivation with 1 μM)”.
Same read-out and setting: in the case of `Cc1cc(NS(=O)(=O)c2ccc(Cl)cc2Cl)ccc1Oc1cnn(-c2ccc(F)cc2)c1` [Example 9] it was “*** (>8 fold increase in gene transactivation with 1 μM)”.
Consider `Cc1ccc(S(=O)(=O)Nc2ccc(Oc3cnn(-c4ccc(C)cc4C)c3)cc2)cc1` [Example 14], for which the PPARγ agonist activity result on human PPARγ is “* (<8 fold increase in gene transactivation with 10 μM)”.
Consider `CN(CCOc1ccc(CC2SC(=O)NC2=O)cc1)c1ccccn1` (stereo not drawn) [Rosiglitazone], for which the “plasma AUC following an i.v. dose (in words)” value in data set [1] (i.v.) is given as “high”. Further, the “oral bioavailability (in words)” value in data set [1] (oral vs i.v. plasma AUC) is given as “high”. In data set [1] (FDA Pharmacology review data, derived from 0.4 mg/kg i.v. dose PK data), the “Plasma AUC following 1 mg/kg i.v. dose” value is 13.75*** μg*hr/ml. Moreover, in data set [1] (FDA Pharmacology review data, derived from 0.4 mg/kg oral dose PK data), the “Plasma AUC following 1 mg/kg oral dose” value was 14.28*** μg*hr/ml.
`O=S(=O)(Nc1cc(Cl)c(Oc2cnn(-c3ccc(F)cc3F)c2)c(Cl)c1)c1ccc(Cl)cc1Cl` [Example 3]: on human PPARγ, the PPARγ agonist activity result is listed as “*** (>8 fold increase in gene transactivation with 1 μM)”.
On the same count and under the same terms, under `O=S(=O)(Nc1ccc(Oc2cnn(-c3ccc(F)cc3)c2)c(Cl)c1)c1ccc(Cl)cc1Cl` [Example 5] stands “*** (>8 fold increase in gene transactivation with 1 μM)”.
In the case of `O=S(=O)(Nc1ccc(Oc2cnn(-c3ccc(F)c(Cl)c3)c2)c(Cl)c1)c1ccc(Cl)cc1Cl` [Example 7], the PPARγ agonist activity result at human PPARγ is given as “** (>8 fold increase in gene transactivation with 10 μM)”. Also, the “Inhibition of TS induced BAL neutrophil influx” value (“Inhibition” for short) in data set [2] (setting [4]) is 37%; in data set [2] (setting [5]), 64%. The “TS induced influx of neutrophils in the BAL (in words)” value (shortened to “TS induced influx of neutrophils”) in data set [2] was “significantly inhibit”. Besides, the “plasma AUC following i.v. dosing (in words)” value in data set [3] is on record as “low”. The “oral bioavailability (in words)” value in data set [3] is on record as “low”. Moreover, the AUC in data set [3] (setting [6]) is 1080 ± 240 ng·h/mL; in data set [3] (setting [7]), 40 ± 8 ng·h/mL.
As to `O=S(=O)(Nc1ccc(Oc2cnn(-c3ccc(F)cc3)c2)c(Cl)c1)c1ccccc1` [Example 12], the PPARγ agonist activity entry on human PPARγ is “* (<8 fold increase in gene transactivation with 10 μM)”.
Same read-out and setting: in the case of `O=S(=O)(Nc1cc(Cl)c(Oc2cnn(-c3ccc(F)cc3)c2)c(Cl)c1)c1ccc(Cl)cc1Cl` [Example 4] it was “*** (>8 fold increase in gene transactivation with 1 μM)”; in that of `O=S(=O)(Nc1ccc(Oc2cnn(-c3ccccc3)c2)c(Cl)c1)c1ccc(Cl)cc1Cl` [Example 13], “*** (>8 fold increase in gene transactivation with 1 μM)”; in that of `Cc1ccc(S(=O)(=O)Nc2ccc(Oc3cnn(-c4ccc(F)cc4)c3)c(Cl)c2)cc1` [Example 8], “** (>8 fold increase in gene transactivation with 10 μM)”.
`Cc1ccc(-n2cc(Oc3ccc(NS(=O)(=O)c4ccc(Cl)cc4Cl)cc3)cn2)c(C)c1` [Example 10]: the PPARγ agonist activity result on human PPARγ was “*** (>8 fold increase in gene transactivation with 1 μM)”. The “Inhibition” value in data set [2] (0.01 mg/kg intra-nasally 3 hours prior to TS exposure each day for 4 days) is recorded as 42%; in data set [2] (0.03 mg/kg intra-nasally 3 hours prior to TS exposure each day for 4 days), 50%; in data set [2] (0.1 mg/kg intra-nasally 3 hours prior to TS exposure each day for 4 days), 72%. Besides, the “TS induced influx of neutrophils” value in data set [2] is “significantly inhibit”. Also, the “Plasma AUC following 1 mg/kg oral dose” value in data set [3] (male Wistar rats, oral gavage (5 mg/kg given), limit of detection was 5 ng/ml) is recorded as “None”. Also, in data set [3], the “plasma AUC following i.v. dosing (in words)” value is “low”. In data set [3], the “oral bioavailability (in words)” value is recorded as “low”. Also, the AUC in data set [3] (setting [6]) was 210 ± 60 ng·h/mL.
On to `Cc1ccc(S(=O)(=O)Nc2ccc(Oc3cnn(-c4ccc(C)cc4C)c3)c(Cl)c2)cc1` [Example 15], for which the PPARγ agonist activity result on human PPARγ was “** (>8 fold increase in gene transactivation with 10 μM)”. Moreover, the “Inhibition” value in data set [2] (setting [4]) worked out at 66%; in data set [2] (setting [5]), 69%. In addition, the “TS induced influx of neutrophils” value in data set [2] was “significantly inhibit”. In data set [3], the “plasma AUC following i.v. dosing (in words)” value is listed as “low”. Moreover, the “oral bioavailability (in words)” value in data set [3] is “low”. In addition, the AUC in data set [3] (setting [6]) stood at 170 ± 60 ng·h/mL; in data set [3] (setting [7]) it was 1 ± 2 ng·h/mL.
Turning to `Cc1ccc(-n2cc(Oc3ccc(NS(=O)(=O)c4ccc(C)cc4)cc3)cn2)cc1` [Example 11], the PPARγ agonist activity result on human PPARγ is recorded as “* (<8 fold increase in gene transactivation with 10 μM)”.
